Test results: patent publication US10865203B2, “Ligands selective to alpha 6 subunit-containing GABAA receptors and their methods of use” (UWM Research Foundation, Inc., priority 2015, dated 2020)
Entries after “also recorded” stand apart in the source; their conditions may differ.

Experiments:
[1] = test system: c-Fos-ir neurons in the TNC of Wistar rats; assay: Migraine model: capsaicin (i.c.)-induced neuronal activation in the TCC; type: in vivo, rat; conditions: i.p., capsaicin 10 nmol i.c., 2 hours after
Protocol: Intra-cisteral instillation of capsaicin. Under anesthesia with chloral hydrate (400 and 100 mg/kg, i.p., respectively, for inducing and maintaining), the rat received a midline skin incision from the occipital protuberance to the upper cervical area. After catheterization with a catheter (PE-10, SIMS Portex Ltd, Hythe, UK) inserted 3 mm deep into the cisterna magna, the rat was placed in a prone position for 6 h. Then, the capsaicin solution (10 nmol, 100 μL) was instilled through the catheter into the cisterna magna over 1 min. The rat was then placed in a reverse Trendelenburg position (−30 degrees) for 30 min in order to facilitate capsaicin distribution within the subarachnoid space, followed by the prone position for another 90 min. […]
Measurement of the total number of C-fos-ir neurons in the TCC. C-Fos-ir neurons, i.e., neurons with stained nuclei, were counted under a microscope (Olympus BX51, Essex, UK) by an observer blinded to the treatment group. […] The total number of c-Fos-ir TCC neurons were estimated based on the formular derived in our previous study (Fan et al., 2012): 16(N1+N2)/2+53(N2+N3)/2, where N1, N2, and N3 were the c-Fos-ir neuronal numbers measured at […] from the obex, respectively.

α1,4,6β3δ receptors = target: T1, α1,4,6β3δ receptors (Rattus norvegicus, UniProt P30191+P63079); assay: Electrophysiology in Xenopus oocytes, delta-containing receptors; type: cell-based; conditions: measured at EC20
T1 construct: expressed in transfected cells; host or cells: Xenopus laevis oocytes injected with subunit mRNA (3:1:5)
Protocol: Mature female Xenopus laevis (Nasco, Fort Atkinson, Wis., USA) were anaesthetized in a bath of ice-cold 0.17% Tricain (Ethyl-m-aminobenzoat, Sigma-Aldrich, St. Louis, Mo., USA) before decapitation and transfer of the frog's ovary to ND96 medium (96 mM NaCl, 2 mM KCl, 1 mM MgCl2, 5 mM HEPES; pH 7.5). Following incubation in 1 mg/mL collagenase (Sigma-Aldrich, St. Louis, Mo., USA) for 30 min, stage 5 to 6 oocytes were singled out of the ovary and defolliculated using a platinum wire loop. Oocytes were stored and incubated at 18° C. in NDE medium (96 mM NaCl, 2 mM KCl, 1 mM MgCl2, 5 mM HEPES, 1.8 mM CaCl2; pH 7.5) that was supplemented with 100 U per mL-1 penicillin, 100 μg per mL-1 streptomycin and 2.5 mM pyruvate. Oocytes were injected with an aqueous solution of mRNA. A total of 2.5 ng of mRNA per oocyte was injected. Subunit ratio was 1:1:5 for αxβγ2 (x=1, 2, 3, 5) and 3:1:5 for α4/6β3γ2 and αβδ receptors. Injected oocytes were incubated for at least 36 h before electrophysiological recordings. Oocytes were placed on a nylon-grid in a bath of NDE medium. For current measurements, the oocytes were impaled with two microelectrodes (2-3MΩ), which were filled with 2 M KCl. The oocytes were constantly washed by a flow of 6 mL per min-1 NDE that could be switched to NDE containing GABA and/or drugs. […] All recordings were performed at room temperature at a holding potential of −60 mV using a Warner OC-725C TEV (Warner Instrument, Hamden, Conn., USA) or a Dagan CA-1B Oocyte Clamp or a Dagan TEV-200A TEV (Dagan Corporation, Mineapolis, Minn., USA). Data were digitized using a Digidata 1322A or 1550 data acquisition system (Axon Instruments, Union City, Calif., USA), recorded using Clampex 10.5 software (Molecular Devices, Sunnyvale, Calif., USA), and analyzed using Clampfit 10.5 and GraphPad Prism 6.0 (La Jolla, Calif., USA) software. Concentration-response data were fitted using the Hill equation. Data are given as mean±SEM from at least three oocytes of two batches.
For selected test compounds full dose response curves were recorded in α1-6β3γ2 receptors. For selected compounds, dose response curves in additional receptor subtypes (α1, 4, 6β3δ, α6β1, 2γ2, α1-6β3) were also obtained. For a wider panel of compounds, a two point screening pharmacology was obtained at 1 and 10 μM compound concentrations.

T1 sequence (P30191 20-453): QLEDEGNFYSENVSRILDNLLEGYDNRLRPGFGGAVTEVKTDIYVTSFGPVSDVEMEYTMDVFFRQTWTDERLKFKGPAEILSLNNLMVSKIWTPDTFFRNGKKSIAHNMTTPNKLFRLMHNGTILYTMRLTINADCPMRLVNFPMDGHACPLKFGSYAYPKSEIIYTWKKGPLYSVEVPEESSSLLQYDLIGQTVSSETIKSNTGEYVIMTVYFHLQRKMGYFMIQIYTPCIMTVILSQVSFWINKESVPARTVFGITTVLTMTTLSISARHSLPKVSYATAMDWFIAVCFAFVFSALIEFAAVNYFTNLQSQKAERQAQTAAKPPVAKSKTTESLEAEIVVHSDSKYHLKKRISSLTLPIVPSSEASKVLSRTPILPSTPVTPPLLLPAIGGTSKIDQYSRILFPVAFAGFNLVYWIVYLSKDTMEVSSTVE
T1 sequence (P63079 26-473): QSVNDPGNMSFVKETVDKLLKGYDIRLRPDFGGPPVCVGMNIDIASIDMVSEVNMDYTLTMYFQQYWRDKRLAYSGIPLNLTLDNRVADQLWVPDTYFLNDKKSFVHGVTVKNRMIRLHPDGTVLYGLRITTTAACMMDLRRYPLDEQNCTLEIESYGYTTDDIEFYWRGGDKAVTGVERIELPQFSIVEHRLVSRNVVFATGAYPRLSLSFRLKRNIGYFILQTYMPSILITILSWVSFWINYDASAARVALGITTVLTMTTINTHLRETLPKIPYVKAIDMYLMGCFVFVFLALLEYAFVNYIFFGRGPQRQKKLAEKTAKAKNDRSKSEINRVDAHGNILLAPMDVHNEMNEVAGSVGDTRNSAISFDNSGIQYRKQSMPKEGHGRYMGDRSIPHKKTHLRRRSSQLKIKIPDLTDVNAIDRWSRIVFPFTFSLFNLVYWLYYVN
T1 sequence (P18506 25-449 partner): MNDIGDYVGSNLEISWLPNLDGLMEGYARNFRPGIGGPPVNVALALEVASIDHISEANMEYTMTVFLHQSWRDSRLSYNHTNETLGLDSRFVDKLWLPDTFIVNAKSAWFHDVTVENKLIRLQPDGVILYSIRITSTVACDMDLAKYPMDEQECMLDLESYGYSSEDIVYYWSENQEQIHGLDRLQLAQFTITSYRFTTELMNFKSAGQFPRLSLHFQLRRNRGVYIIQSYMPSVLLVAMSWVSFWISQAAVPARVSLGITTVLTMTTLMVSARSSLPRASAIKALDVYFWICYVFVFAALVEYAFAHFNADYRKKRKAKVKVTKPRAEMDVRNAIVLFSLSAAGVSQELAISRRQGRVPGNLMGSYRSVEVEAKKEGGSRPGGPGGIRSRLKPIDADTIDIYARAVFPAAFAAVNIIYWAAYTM

Row | Compound | number of c-Fos-ir neurons in the TNC induced by i.c. capsaicin [1] | Receptor potentiation in the α6β3δ receptor (α1,4,6β3δ receptors)
1 | COc1ccc(-n2nc3c4ccc(OC)cc4[nH]cc-3c2=O)cc1 [Compound 6, 7-Methoxy-2-(4-methoxyphenyl)-2,5-dihydro-3H-pyrazolo[4,3-c]quinolin-3-one] | significantly decreased; also recorded: reduces | 
2 | [2H]C([2H])([2H])Oc1ccc2c3nn(-c4ccc(OC)nc4)c(=O)c-3c[nH]c2c1 [DK-I-86-1, 7-Methoxy-d3-2-(6-methoxypyridin-3-yl)-2,5-dihydro-3H-pyrazolo[4,3-c]quinolin-3-one] |  | modulated
